Laboratory results: patent US20260034119A1, “5-METHOXY-N,N-[…][…], THEIR […], AND METHODS FOR TREATMENT OF NEUROLOGICAL, […], AND SUBSTANCE USE DISORDERS” (priority 2023, published 2026)
Where two headings read alike, the source gives them in different places.

Tests used:
5-HT2A = 5-HT2A (Homo sapiens, UniProt P28223)
[1] = In vivo pharmacokinetics in mice (plasma and brain, subcutaneous); parameters: species or system mouse; conditions: for Kp / Cmax: male, C57BL/6, mouse, sc, 1 mg/kg; for Kp: brain and plasma
Protocol: Test System: Healthy male C57BL/6 mice (8-12 weeks old) weighing between 20 to 35 g were procured from Global (India). Three mice were housed in each cage. Temperature and humidity were maintained at 22±3° C. and 30-70%, respectively and illumination was controlled to give a sequence of 12 hr light and 12 hr dark cycle. Temperature and humidity were recorded by auto-controlled data logger system. All animals were provided laboratory rodent diet (Envigo Research Private Ltd, Hyderabad, India). Reverse osmosis water treated with UV light was provided ad libitum.
Study Design: Total twenty-seven male mice were used in this study with 3 mice/time point design. Animals were administered subcutaneously […] with solution formulation of compound at the requited dose.
Formulation Preparation: Accurately weighed of the desired compound was taken in a labeled bottle. To this the appropriate amount of normal saline was added, vortexed and followed by addition of 2 mol. equiv. of glacial acetic acid. The above formulation was again vortexed and sonicated for about 1 h with intermittent vortexing to obtain clear solution. The final dose formulation was filtered through 0.45 micron filter. No adverse clinical signs in any animals during study period.
Sample Collection: Blood samples (approximately 60 μL) were collected under light isoflurane anesthesia (Surgivet®) from retro orbital plexus from a set of three mice at 0.083, 0.25, 0.5, 1, 2, 4, 8, and 12 hr. Immediately after blood collection, plasma was harvested by centrifugation at 4000 rpm, 10 min at […] and samples were stored at −70±10° C. until bioanalysis. Following blood collection, immediately animals were sacrificed followed by abdominal vena-cava was cut open and whole body was perfused from heart using 10 mL of normal saline. Brain samples were collected from set of three mice at 0.083, 0.25, 0.5, 1, 2, 4, 8, and 12 hr. After isolation, brain samples were rinsed three times in ice cold normal saline (for 5-10 seconds/rinse using ˜5-10 mL normal saline in disposable petri dish for each rinse) and dried on blotting paper. Brain samples were homogenized using ice-cold phosphate buffer saline (pH-7.4). Total homogenate volume was three times the tissue weight. All homogenates were stored below −70±10° C. until bioanalysis.
Concentrations of the compound in mouse plasma and brain samples were determined by fit for purpose LC-MS/MS method. The sample processing and extraction procedure, chromatographic and mass spectrometric conditions as follows:
Non-Compartmental-Analysis tool of Phoenix WinNonlin® Version 8.0 (Certara, Princeton, NJ, USA) was used to assess the pharmacokinetic parameters. Peak plasma concentration (Cmax) and time for the peak plasma concentration (Tmax) were the observed values. The areas under the concentration time curve (AUClast and AUCinf) were calculated by linear trapezoidal rule. The terminal elimination rate constant, ke was determined by regression analysis of the linear terminal portion of the log plasma concentration-time curve. Tissue-Kps were calculated using Microsoft Excel® (Microsoft Corporation, […], WA, USA).

[2] = Mouse plasma protein binding; assay type: in vitro ADME; conditions: for fraction unbound: mouse, plasma
SERT = target: T1, SERT (Homo sapiens, UniProt P31645); experiment: Serotonin transporter (SERT) uptake inhibition; assay type: cell-based; conditions: compared with 5-HT1A
T1 construct: expressed in transfected cells; host or cells: HEK293-T
Protocol: The uptake inhibition assay was performed the following day. […] To each well, 30 μl of HBSS containing 20 mM HEPES, 0.1% BSA, and 0.01% ascorbic acid and 15 μl of 3× drug dilutions were added. Cells were then incubated at 37° C. for 45 min. A final concentration of 10 μM FFN246 (Aobious) (Henke et al. 2018) was added to each well, and cells were incubated for an additional hour at 37° C. […] Data was plotted as a function of drug concentration, normalized to % citalopram inhibition, and analyzed using “log(inhibitor) vs. response” in GraphPad Prism 8.0.

5-HT2A V366N = target: T2, 5-HT2A V366N (Homo sapiens, UniProt P28223, V366N); experiment: Gq BRET at mutant 5-HT2A V366N; assay type: cell-based; conditions: Gq BRET, 5-HT2A V366N^7.39
T2 construct: expressed in transfected cells; host or cells: HEK293-T
T2 sequence (P28223 whole entry V366N): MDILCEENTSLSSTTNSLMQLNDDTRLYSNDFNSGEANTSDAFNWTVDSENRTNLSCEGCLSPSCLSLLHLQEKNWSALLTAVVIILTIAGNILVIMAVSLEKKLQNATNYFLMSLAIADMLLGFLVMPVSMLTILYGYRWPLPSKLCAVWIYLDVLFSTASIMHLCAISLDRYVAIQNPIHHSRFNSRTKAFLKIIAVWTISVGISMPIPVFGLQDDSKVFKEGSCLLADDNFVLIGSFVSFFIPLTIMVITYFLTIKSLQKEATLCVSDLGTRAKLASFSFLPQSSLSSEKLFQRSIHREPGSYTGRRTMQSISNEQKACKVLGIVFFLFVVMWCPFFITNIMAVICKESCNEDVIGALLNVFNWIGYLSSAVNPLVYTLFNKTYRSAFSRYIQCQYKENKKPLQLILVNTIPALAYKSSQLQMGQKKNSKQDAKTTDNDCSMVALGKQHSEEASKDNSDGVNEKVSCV

Chain of 5-HT2A (P28223 whole entry): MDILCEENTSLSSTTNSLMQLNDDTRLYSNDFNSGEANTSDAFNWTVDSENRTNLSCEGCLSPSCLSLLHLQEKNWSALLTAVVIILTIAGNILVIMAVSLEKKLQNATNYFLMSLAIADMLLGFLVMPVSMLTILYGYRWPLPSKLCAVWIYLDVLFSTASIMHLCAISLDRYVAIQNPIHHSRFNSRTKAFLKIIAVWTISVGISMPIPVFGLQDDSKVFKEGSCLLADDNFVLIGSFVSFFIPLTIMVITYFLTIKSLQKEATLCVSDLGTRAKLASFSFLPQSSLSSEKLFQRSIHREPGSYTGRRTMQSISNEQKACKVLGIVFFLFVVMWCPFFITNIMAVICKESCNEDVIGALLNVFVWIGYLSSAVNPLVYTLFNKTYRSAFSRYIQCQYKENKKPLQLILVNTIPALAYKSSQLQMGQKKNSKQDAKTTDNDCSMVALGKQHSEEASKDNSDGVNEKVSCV
T1 sequence (P31645 whole entry, species assumed): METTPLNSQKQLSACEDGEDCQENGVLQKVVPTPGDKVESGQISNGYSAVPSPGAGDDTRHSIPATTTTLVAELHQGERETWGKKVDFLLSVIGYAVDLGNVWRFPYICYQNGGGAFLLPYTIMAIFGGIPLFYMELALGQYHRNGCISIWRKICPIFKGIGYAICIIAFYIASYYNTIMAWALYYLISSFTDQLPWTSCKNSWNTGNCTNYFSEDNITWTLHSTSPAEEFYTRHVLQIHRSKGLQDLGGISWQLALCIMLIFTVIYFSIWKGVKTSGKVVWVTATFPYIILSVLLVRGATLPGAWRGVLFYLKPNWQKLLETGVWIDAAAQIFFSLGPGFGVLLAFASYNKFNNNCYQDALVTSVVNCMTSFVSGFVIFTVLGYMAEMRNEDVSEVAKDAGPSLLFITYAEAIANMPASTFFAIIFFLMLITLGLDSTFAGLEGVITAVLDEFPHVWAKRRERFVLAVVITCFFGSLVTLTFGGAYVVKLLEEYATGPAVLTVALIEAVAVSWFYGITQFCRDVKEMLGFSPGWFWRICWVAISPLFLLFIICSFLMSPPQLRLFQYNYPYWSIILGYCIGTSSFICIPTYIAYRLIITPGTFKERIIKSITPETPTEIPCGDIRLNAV

Structure (SMILES): COc1ccc2[nH]cc(CCN3CCCC3)c2c1F [4-F, 5-MeO-PyrT, 4-Fluoro, 5-methoxypyrrolidinyl-tryptamine]
- EC50 (5-HT2A; Gq BRET, 5-HT2A WT): 300 nM
- pEC50 (5-HT2A; Gq BRET, 5-HT2A WT): (6.52,
- EC50 (5-HT2A; read-out: Gq BRET EC50): 300 nM
- Kp ([1]; mouse, 1 mg/kg s.c., read-out: total brain:plasma ratio): 3.3
- Kp ([1]; mouse, 1 mg/kg s.c., read-out: unbound brain:plasma ratio): 0.91
- Cmax ([1]; brain, mouse brain, 1 mg/kg SC, read-out: Total Cmax (ng/mL), Brain): 143 ng/mL
- Cmax ([1]; brain, mouse, 1 mg/kg subcutaneous, read-out: Cmax/brain): 143 ng/mL
- Cmax ([1]; plasma, mouse plasma, 1 mg/kg SC, read-out: Total Cmax (ng/mL), Plasma): 44 ng/mL
- Total AUClast ((hr*ng)/mL), Brain ([1]; mouse brain, 1 mg/kg SC): 128.34 ng·h/mL
- time at which brain penetration peaks ([1]; mouse brain, 1 mg/kg s.c.): 30 min
- Total AUClast ((hr*ng)/mL), Plasma ([1]; mouse plasma, 1 mg/kg SC): 26.40 ng·h/mL
- compound largely cleared within ([1]; mouse, 1 mg/kg s.c.): ≤ 2 h
- estimated free drug concentration in the brain at Tmax ([1]; mouse, 1 mg/kg s.c.): ~100 nM
- recovery [2]: 84.7%
- % Compound remaining at 4 h ([2]; 4 h): 105.6%
- fraction unbound ([2]; read-out: % Bound Mean (converted)): 0.626
- fraction unbound ([2]; read-out: % Unbound): 0.626
- fraction unbound ([2]; read-out: fu): 0.626
- fraction unbound ([2]; replicate R1, read-out: % Bound R1 (converted)): 0.68
- fraction unbound ([2]; replicate R2, read-out: % Bound R2 (converted)): 0.573
- activity at the serotonin transporter (SERT): substantially lower activity
- pEC50 (5-HT2A V366N): (6.8,
- EC50 (5-HT2A V366N; read-out: EC50): 157 nM
